Consider 1 substance from publication PMC8131842, “Therapeutic Potential of Vasoactive Intestinal Peptide and its Derivative Stearyl-Norleucine-VIP in Inflammation-Induced Osteolysis” (Frontiers in Pharmacology, 2021).

Data set [1] relates to Primary murine preosteoclasts. The data set can be described thus: Osteoclastogenesis assay with conditioned medium from TiP-exposed macrophages (TRAP staining). It is filed as cell-based, mouse. To be noted: 10^-6 M, conditioned medium of TiP-exposed macrophages. The protocol: Osteoclastogenesis assay. Preosteoclasts, prepared like the BMDMs, were plated in 96-well plates (7,000 cells per well, for TRAP staining, see below) or in 6-well plates (200,000 cells per well, for RNA) in standard medium supplemented with 20 ng/ml M-CSF and 50 ng/ml RANKL (R&D Systems, Minneapolis, MN, United States). After 48 h, the medium was replaced by the conditioned medium of BMDM, supplemented with RANKL and M-CSF. Where indicated, 10^−6 M SNV or VIP were added. […], cells were stained using a TRAP kit (Sigma-Aldrich, St. Louis, MO, United States), and multinucleated (>3 nuclei) TRAP-positive cells were defined as osteoclasts. Images were acquired at an original magnification of ×4 (Evos FLC, Life Technologies, MS, United States). The number of osteoclasts and the total osteoclast area were measured using ImageJ software (National Institutes of Health, Bethesda, MD, United States).
(§1) FIGURE 4 VIP and SNV alleviate the osteoclastogenic effect of TiP-induced inflammation. (A) Primary BMDM were exposed to TiP and RNA was collected after 24 h. mRNA expression are presented as Mean±SD fold change versus Control. * p<0.05 vs. Control. (B-D) Primary murine preosteoclasts were cultured in 20 ng/ml M-CSF and 50 ng/ml RANKL for 48 h. Conditioned medium from macrophages (Control) and macrophages exposed to Ti particles (Ti, as in A) was then added together with 10^-6M of VIP or SNV (or saline) for 48 h before TRAP staining. Data are Mean±SD for osteoclast % surface area (B) and number per well (C). (D) Representative images all acquired at a 4x original magnification. The scale bar for all images is in the upper left panel. n=8, #p<0.05 vs. Control; *p<0.05 vs. Ti, ANOVA. (E) Primary murine macrophages/preosteoclasts were cultured in 20 ng/ml M-CSF and Ti particles, 10^-6M of VIP or SNV, or saline only. MTT viability assay was performed after 1, 3 and 5 days and presented as optical density values. N=5, no statistical differences were found between the treatment groups. Data are Mean±SD in arbitrary OD units.

Data set [2] deals with Primary murine macrophages/preosteoclasts. The data set can be described thus: MTT viability assay. It is filed as cell-based, mouse. The following applies: 10^-6 M, 20 ng/ml M-CSF, 1, 3 and 5 days of treatment, N=5. The protocol: MTT assay. For proliferation assay, macrophages were plated (4000 cells/well) into 96-well plate with standard medium supplemented with 20 ng of M-CSF. Cells were treated as indicated with either TiP, SNV, VIP (10^−6 M) or vehicle at first day of incubation. Cells viability was determined using dimethylthiazol-diphenyl-tetrazolium-bromide (MTT) after 1, 3 or 5 days. MTT was added to a final concentration of 5 mg/ml and incubated for 4 h at 37°C. After complete solubilization of the die in DMSO, plates were read at 570 nm in a colorimetric plate reader.
as §1, with “(E) Primary murine macrophages/preosteoclasts were cultured in 20 ng/ml M-CSF and Ti particles, 10^-6M of VIP or SNV, or saline only. MTT viability assay was performed after 1, 3 and 5 days and presented as optical density values. N=5, no statistical differences were found between the treatment groups. Data are Mean±SD in arbitrary OD units.” left out
(Tetrazolium dyes change colour on reduction, which living cells bring about.)

The test system of data set [3] is TiP-induced osteolysis on mouse calvaria. The data set can be described thus: TiP-induced osteolysis, mouse calvarial model (µCT). It is filed as in vivo.
For data set [4] the following is noted: matrix not given, ref Gozes et al., 1994, 1996; cited from earlier work. The source says: (§2) VIP derivatives and conjugates were designed to include a lipophilic moiety or a shortened VIP chain ([Gozes and Fridkin, 1992]; [Gozes et al., 1994]; [Gozes et al., 1995]; [Gozes et al., 1996]; [Gozes et al., 1999]). Stearyl-norleucine-VIP (Stearyl-Nle^17VIP, SNV) is a lipophilic compound consisting of a VIP molecule with an N-terminal attachment of stearic acid to increase cell and tissue bioavailability and an exchange of the oxidation-vulnerable methionine at position 17 with the stable norleucine.

Another data set deals with neuroprotection. The following applies: ref Ashur-Fabian et al., 1999; cited from earlier work.
Description: as §2

Setting [5] is: 20 ng/ml M-CSF + 50 ng/ml RANKL, TRAP staining, n=8, vs Ti.

As to “Stearyl–HSDAVFTDNYTRLRKQ-Nle-AVKKYLNSILN-NH2 [SNV, Stearyl-norleucine-VIP, lipophilic VIP derivative with N-terminal stearic acid and norleucine in place of methionine at position 17]”, the “Inhibitory effect on osteoclasts compared with VIP” value in data set [1] is “stronger inhibitory effect on osteoclasts than VIP”. In data set [1] (setting [5]), the Osteoclast area entry is reported as “attenuated” and the Osteoclast number result was “attenuated”. In data set [2], the “Viability of the cells (MTT, optical density)” value is on record as “neither VIP nor SNV affected the viability”. Also, in data set [3] (2 × 10^–8 mol SNV in fibrinogen-thrombin membrane with TiP, 5 weeks, µCT), the Calvaria thickness entry is reported as “no significant differences”. Besides, in data set [3] (mouse, in vivo), the “Lowering of pit resorption volume (PRV) vs Ti” value was 60% and the “Lowering of pit resorption volume as percentage of the total tissue volume (PRV/TV) vs Ti” value is 60%. Besides, in data set [4], the Half-life is reported as 15 min. Further, in the data set with neuroprotection, the “Potency relative to VIP in neuroprotection” value is listed as 1000 fold.
